Source: patent US20210361741A1, “NANOPARTICLE FORMULATIONS AND METHODS OF USE FOR ALPHA CONNEXIN C-TERMINAL PEPTIDES” (FIRSTSTRING RESEARCH, INC., priority 2018, published 2021)

Test system: U87MG GBM cells
Assay: Xenograft GBM mouse model
Type: in vivo
Details: TMZ alone, 7.5 mg/kg i.p. every other day
Experimental: Effect of αCT1-NP in a xenograft GBM mouse model. To assess the in vivo safety and efficacy of αCT1-NPs, a mouse xenograft model of GBM was employed U87MG GBM cells were cultured and 1×10^6 cells were mixed with 100 μL of Matrigel® Matrix and subcutaneously injected into the flanks of SCID/beige anesthetized mice using 23 gauge needles. After 8 days, mice were divided into 2 groups: (i) TMZ alone, and (ii) TMZ+αCT1 particles. The treatment regimen was as follows: TMZ (7.5 mg/kg) was administered by intraperitoneal injection with an insulin syringe every other day starting on day 8 for both groups 1 and 2 mice. αCT1 particles were reconstituted in 1×PBS from −80° C. storage and 100 uL aliquots were prepared and stored at −20° C. The concentration of αCT1 delivered in 1 dose of particles (100 uL) was approximately 8 μM at 1.2 mg particles/kg of mouse body weight. αCT1 particles were delivered at the tumor growth site every other day starting on day 10 for group 2 mice using insulin syringes. Group 2 mice received a total of 6 injections of particles during the course of treatment. This treatment regimen continued for 13 days. Tumor sizes were measured every other day using a caliper. Tumor volume was calculated ((length×width2)/2).

Cn1nnc2c(C(N)=O)ncn2c1=O [TMZ, temozolomide]
tumor volume: no effect
